{"source": "patent US6617140B2", "molecules": {"B1": {"name": "L-proline-4-hydroxylase (Dactylosporangium salmoneum) (protein)", "chain": "MLTPTELKQYREAGYLLIEDGLGPREVDCLRRAAAALYAQDSPDRTLEKDGRTVRAVHGCHRRDPVCRDLVRHPRLLGPAMQILSGDVYVHQFKINAKAPMTGDVWPWHQDYIFWAREDGMDRPHVVNVAVLLDEATHLNGPLLFVPGTHELGLIDVERRAPAGDGDAQWLPQLSADLDYAIDADLLARLTAGRGIESATGPAGSILLFDSRIVHGSGTNMSPHPRGVVLVTYNRTDNALPAQAAPRPEFLAARDATPLVPLPAGFALAQPV"}}, "key": {"[1]": {"biological_target": "L-proline-4-hydroxylase (Dactylosporangium salmoneum, UniProt A0ABP5TRQ3)", "test": "Substrate omission and addition tests on the enzyme reaction (indispensable compounds, promoters, inhibitors)", "assay_type": "biochemical, Dactylosporangium sp. RH1", "conditions": "for Relative Activity: 80 mM TES pH 7.5, 30° C., 15 minutes, standard reaction mixture = 100; for activity of the enzyme in the presence of the ion, of the original activity: ion at 1 mM", "procedure": "The reaction was initiated by addition of the enzyme and continued for 15 minutes at 30° C. The reaction was stopped by heating the reaction mixture at 100° C. for 2 minutes. […] The reaction was stopped by adding 30 μl of 1 N HCl to the reaction mixture, and the precipitates formed were removed therefrom by centrifugation and filtration.\nThe HPLC for the determination was carried out under the following conditions: […]"}, "[2]": {"substrate": "O=C(O)[C@@H]1CCCN1", "test": "purified protein, by the assay type", "conditions": "other: 80 mM MES buffer (pH 6.5), 4 mM L-ascorbic acid, 2 mM ferrous sulfate"}, "[3]": {"substrate": "O=C(O)CCC(=O)C(=O)O", "test": "purified protein, by the assay type", "conditions": "other: 80 mM MES buffer (pH 6.5), 4 mM L-ascorbic acid, 2 mM ferrous sulfate"}}, "note": "“Also recorded” adds a separate entry of the source. Read-outs that look alike come from different tables or passages of the source."}
{"molecule": "O=C1O[C@H]([C@@H](O)CO)C(O)=C1O", "note": "[L-ascorbic acid]", "values": [{"measurement": "promotion of the enzyme activity/reaction (in words)", "setting": "[1]", "result": "promotes the reaction"}, {"measurement": "Relative Activity", "setting": "[1]; component not added (omitted)", "result": 51}, {"measurement": "promotion of the enzyme activity/reaction (in words)", "setting": "[1]; listed as Ascorbic acid", "result": "promotes the activity of the enzyme"}, {"measurement": "promotion of the enzyme activity/reaction (in words)", "setting": "[1]; listed as L-Ascorbic acid", "result": "accelerates the activity of the enzyme"}]}
{"molecule": "[Fe+2]", "note": "[Fe^++]", "values": [{"measurement": "need of the component for the enzyme reaction (in words)", "setting": "[1]", "result": "indispensable"}, {"measurement": "Relative Activity", "setting": "[1]; component not added (omitted)", "result": 0}]}
{"molecule": "[Zn+2]", "note": "[Zn^++]", "values": [{"measurement": "inhibition of the enzyme activity/reaction (in words)", "setting": "[1]", "result": "inhibit the reaction; also recorded: inhibited"}, {"measurement": "Relative Activity", "setting": "[1]; component added at 1 mM", "result": 6}, {"measurement": "activity of the enzyme in the presence of the ion, of the original activity", "setting": "[1]", "result": 6, "unit": "%"}]}
{"molecule": "O=C(O)[C@@H]1CCCN1", "note": "[L-proline]", "values": [{"measurement": "need of the component for the enzyme reaction (in words)", "setting": "[1]", "result": "indispensable"}, {"measurement": "Relative Activity", "setting": "[1]; component not added (omitted)", "result": 0}]}
{"molecule": "O=C(O)CN(CCN(CC(=O)O)CC(=O)O)CC(=O)O", "note": "[EDTA, ethylenediaminetetraacetic acid]", "values": [{"measurement": "inhibition of the enzyme activity/reaction (in words)", "setting": "[1]", "result": "inhibit the reaction"}, {"measurement": "activity of the enzyme in the presence of EDTA", "setting": "[1]; 5 mM EDTA", "result": "no activity of the enzyme was detected"}, {"measurement": "Relative Activity", "setting": "[1]; component added at 5 mM", "result": 0}, {"measurement": "inhibition of the enzyme activity/reaction (in words)", "setting": "[1]; listed as ethylenediaminetetraacetic acid", "result": "inhibited"}]}
{"molecule": "O=C(O)CCC(=O)C(=O)O", "note": "[2-ketoglutaric acid]", "values": [{"measurement": "need of the component for the enzyme reaction (in words)", "setting": "[1]", "result": "indispensable"}, {"measurement": "Relative Activity", "setting": "[1]; component not added (omitted)", "result": 0}]}
{"molecule": "[Cu+2]", "note": "[Cu^++]", "values": [{"measurement": "inhibition of the enzyme activity/reaction (in words)", "setting": "[1]", "result": "inhibit the reaction; also recorded: inhibited"}, {"measurement": "Relative Activity", "setting": "[1]; component added at 1 mM", "result": 13}, {"measurement": "activity of the enzyme in the presence of the ion, of the original activity", "setting": "[1]", "result": 13, "unit": "%"}]}
{"molecule": "Catalase", "values": [{"measurement": "Relative Activity", "setting": "[1]; component not added (omitted)", "result": 93}]}
{"molecule": "B1", "values": [{"measurement": "Km", "setting": "[2]", "result": 270, "unit": "µM"}, {"measurement": "Km", "setting": "[3]", "result": 550, "unit": "µM"}]}
